Common to all, as to assay type: biochemical
For one experiment, the target named is ITK (Homo sapiens (Human), UniProt Q08881). In words: IC50 against ITK.
In a further experiment the target is TXK (Homo sapiens (Human), UniProt P42681). In words: IC50 against TXK. The note with it: for TXK/ITK: ratio of TXK IC50 to ITK IC50.
In a further experiment the target is JAK3 (Homo sapiens (Human), UniProt P52333). In words: IC50 against JAK3.
Another experiment addresses BTK (Homo sapiens (Human), UniProt Q06187). In words: IC50 against BTK.

Where only a bound is given, the exact number is not on record here.

Sequence of ITK (Q08881 whole entry): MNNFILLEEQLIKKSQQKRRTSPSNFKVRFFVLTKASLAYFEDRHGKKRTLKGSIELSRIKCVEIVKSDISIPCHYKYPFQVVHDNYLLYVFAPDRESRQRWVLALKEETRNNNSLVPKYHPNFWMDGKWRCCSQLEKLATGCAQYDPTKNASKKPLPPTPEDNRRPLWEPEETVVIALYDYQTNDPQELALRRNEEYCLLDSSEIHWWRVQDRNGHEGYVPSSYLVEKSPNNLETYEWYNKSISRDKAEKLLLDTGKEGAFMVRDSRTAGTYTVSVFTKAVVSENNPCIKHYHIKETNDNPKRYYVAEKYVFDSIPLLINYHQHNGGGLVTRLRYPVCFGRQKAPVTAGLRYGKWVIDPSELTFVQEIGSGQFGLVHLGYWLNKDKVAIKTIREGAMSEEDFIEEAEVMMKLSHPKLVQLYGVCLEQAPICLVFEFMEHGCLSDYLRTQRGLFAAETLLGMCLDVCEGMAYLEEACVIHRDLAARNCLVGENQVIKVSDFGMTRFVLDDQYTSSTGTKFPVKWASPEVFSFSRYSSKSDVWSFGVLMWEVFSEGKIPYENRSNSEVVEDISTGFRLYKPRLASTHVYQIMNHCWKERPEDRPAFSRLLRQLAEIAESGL
Sequence of TXK (P42681 whole entry, species assumed): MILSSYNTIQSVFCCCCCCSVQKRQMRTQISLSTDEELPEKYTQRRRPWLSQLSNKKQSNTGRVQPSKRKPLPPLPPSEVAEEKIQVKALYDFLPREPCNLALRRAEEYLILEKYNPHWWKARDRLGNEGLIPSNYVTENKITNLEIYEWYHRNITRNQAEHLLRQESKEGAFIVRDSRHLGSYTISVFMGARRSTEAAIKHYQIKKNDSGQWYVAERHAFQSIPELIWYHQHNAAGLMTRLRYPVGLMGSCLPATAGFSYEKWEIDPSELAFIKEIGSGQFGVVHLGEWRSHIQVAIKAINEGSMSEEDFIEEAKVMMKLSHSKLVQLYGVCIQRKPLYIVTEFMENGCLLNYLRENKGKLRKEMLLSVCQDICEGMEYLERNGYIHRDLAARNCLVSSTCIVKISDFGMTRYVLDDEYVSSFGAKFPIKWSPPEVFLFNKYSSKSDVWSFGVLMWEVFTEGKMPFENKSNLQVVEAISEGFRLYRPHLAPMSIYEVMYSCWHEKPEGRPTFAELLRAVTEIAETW
Sequence of JAK3 (P52333 whole entry, species assumed): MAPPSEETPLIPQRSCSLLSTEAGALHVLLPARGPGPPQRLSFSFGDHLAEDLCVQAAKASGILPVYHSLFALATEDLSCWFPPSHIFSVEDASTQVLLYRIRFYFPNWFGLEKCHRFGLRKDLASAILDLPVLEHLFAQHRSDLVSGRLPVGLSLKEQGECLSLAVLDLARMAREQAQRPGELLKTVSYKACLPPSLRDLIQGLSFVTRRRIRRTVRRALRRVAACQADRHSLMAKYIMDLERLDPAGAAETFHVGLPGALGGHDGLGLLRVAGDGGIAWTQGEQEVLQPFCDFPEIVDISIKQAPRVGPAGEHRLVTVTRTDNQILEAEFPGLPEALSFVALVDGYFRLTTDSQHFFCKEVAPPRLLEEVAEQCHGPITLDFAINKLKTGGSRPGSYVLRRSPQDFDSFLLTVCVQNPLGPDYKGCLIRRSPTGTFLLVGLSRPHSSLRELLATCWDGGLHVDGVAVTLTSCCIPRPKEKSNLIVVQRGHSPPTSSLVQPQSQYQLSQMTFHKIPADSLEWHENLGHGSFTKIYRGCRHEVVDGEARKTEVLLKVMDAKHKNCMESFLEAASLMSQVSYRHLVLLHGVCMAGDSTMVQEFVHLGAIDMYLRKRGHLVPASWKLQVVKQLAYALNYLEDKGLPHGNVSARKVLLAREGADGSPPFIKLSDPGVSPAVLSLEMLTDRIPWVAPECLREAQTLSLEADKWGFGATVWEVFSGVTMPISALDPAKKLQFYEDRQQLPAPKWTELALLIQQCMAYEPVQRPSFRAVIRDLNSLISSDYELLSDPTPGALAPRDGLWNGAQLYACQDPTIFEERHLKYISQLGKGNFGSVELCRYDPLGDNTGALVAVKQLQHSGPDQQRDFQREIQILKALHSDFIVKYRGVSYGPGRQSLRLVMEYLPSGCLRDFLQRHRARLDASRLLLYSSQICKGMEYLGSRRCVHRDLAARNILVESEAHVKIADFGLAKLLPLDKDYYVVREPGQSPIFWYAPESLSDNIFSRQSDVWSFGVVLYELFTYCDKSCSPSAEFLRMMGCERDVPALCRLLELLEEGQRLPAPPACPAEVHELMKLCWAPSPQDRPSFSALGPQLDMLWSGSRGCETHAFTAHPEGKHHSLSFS
Sequence of BTK (Q06187 whole entry, species assumed): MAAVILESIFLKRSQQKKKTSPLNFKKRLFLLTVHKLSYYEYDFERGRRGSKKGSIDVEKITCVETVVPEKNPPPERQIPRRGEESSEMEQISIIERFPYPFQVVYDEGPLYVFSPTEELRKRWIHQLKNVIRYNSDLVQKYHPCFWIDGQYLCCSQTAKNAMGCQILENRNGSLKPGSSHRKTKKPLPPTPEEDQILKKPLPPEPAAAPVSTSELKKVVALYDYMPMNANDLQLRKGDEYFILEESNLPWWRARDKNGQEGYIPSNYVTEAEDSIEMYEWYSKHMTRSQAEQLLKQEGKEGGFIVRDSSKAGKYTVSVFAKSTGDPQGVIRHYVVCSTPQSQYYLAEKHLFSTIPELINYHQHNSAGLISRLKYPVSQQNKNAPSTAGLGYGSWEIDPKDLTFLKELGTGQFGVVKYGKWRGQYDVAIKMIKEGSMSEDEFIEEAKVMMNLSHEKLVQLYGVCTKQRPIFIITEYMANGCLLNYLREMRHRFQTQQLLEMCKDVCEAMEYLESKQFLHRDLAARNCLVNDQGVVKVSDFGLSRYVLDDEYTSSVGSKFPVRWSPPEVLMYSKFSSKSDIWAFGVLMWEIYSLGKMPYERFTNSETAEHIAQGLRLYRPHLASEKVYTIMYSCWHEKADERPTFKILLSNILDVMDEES

As to `C=CC(=O)N1CCN(C(=O)c2cc(Sc3cnc(NC(=O)c4ccsc4)s3)c(C)cc2OC)CC1(C)C` [Compound 141, N-(5-((5-(4-acryloyl-3,3-dimethylpiperazine-1-carbonyl)-4-methoxy-2-methylphenyl)thio)thiazol-2-yl)thiophene-3-carboxamide], the IC50 (as a rule, the concentration that gives 50% inhibition) was less than 10 nM on ITK, 10 to 100 nM at TXK, 100 to 1000 nM on JAK3 and 10 to 100 nM against BTK. Also, the TXK/ITK at TXK is on record as 14.70.
For the compound `C=CC(=O)N1CCN(C(=O)c2cc(Sc3cnc(Nc4ncc(C)nc4C)s3)c(C)cc2C)CC1` [Compound 139], the half-maximal inhibitory concentration (IC50) lay within 10 to 100 nM against ITK, 10 to 100 nM against TXK, 100 to 1000 nM against JAK3 and 100 to 1000 nM against BTK. Moreover, the TXK/ITK at TXK is reported as 4.65.
As to `C=CC(=O)N1CCN(C(=O)c2cc(Sc3cnc(NC(C)=O)s3)c(C)cc2OC)[C@@H](C)C1` [Compound 9], the 50% inhibitory concentration (IC50) is less than 10 nM on ITK, 10 to 100 nM against TXK, 100 to 1000 nM against JAK3 and 100 to 1000 nM at BTK. Besides, on TXK, the TXK/ITK is 14.236.
Take `C=CC(=O)N1CCN(C(=O)c2cc(Sc3cnc(NC(=O)C4CC4)s3)c(C)cc2Cl)C[C@H]1CC` [Compound 99]: the half-inhibitory concentration (IC50) on ITK lay in the range of 10 to 100 nM; against TXK it was 10 to 100 nM; against JAK3, 100 to 1000 nM; at BTK, 1000 to 10000 nM. The TXK/ITK at TXK is listed as 4.279.
`C=CC(=O)N1C[C@H]2CC[C@@H](C1)N2C(=O)c1cc(Sc2cnc(NC(=O)C3CC3)s2)c(C)cc1OC` [Compound 17]: the IC50 on ITK was less than 10 nM; at TXK it was less than 10 nM; on JAK3, 10 to 100 nM; against BTK, less than 10 nM. The TXK/ITK on TXK came to 5.4235.
Take `C=CC(=O)N1CCN(C(=O)c2cccc(Cc3cnc(NC(=O)C4CC4)s3)c2)CC1` [Compound 4]: the 50% inhibitory concentration (IC50) against ITK was in the range of 10 to 100 nM; on TXK it was 10 to 100 nM; on JAK3, 100 to 1000 nM; against BTK, 100 to 1000 nM. In addition, the TXK/ITK at TXK was determined as 0.3296.
In the case of `C=CC(=O)N1CCN(C(=O)c2cc(Sc3cnc(Nc4ccccn4)s3)c(Cl)cc2C)CC1` [Compound 126], the IC50 at ITK is less than 10 nM; against TXK it was 10 to 100 nM; against JAK3 it was 10 to 100 nM; on BTK it was 10 to 100 nM. The TXK/ITK on TXK came out at 13.5.
Turning to `C=CC(=O)N1CCN(C(=O)c2cc(Sc3cnc(NC(=O)C4CC4)s3)c(C)cc2C(F)(F)F)C[C@H]1C` [Compound 69], the half-maximal inhibitory concentration (IC50) was 100 to 1000 nM against ITK, 100 to 1000 nM against TXK, 1000 to 10000 nM at JAK3 and no less than 10000 nM on BTK. For the same compound, the TXK/ITK on TXK is listed as 4.9369.
As to `C=CC(=O)N1CCCN(C(=O)c2cc(Cc3cnc(NC(=O)C4CC4)s3)c(C)cc2C)C[C@H]1C` [Compound 127], the IC50 at ITK was 10 to 100 nM; against TXK, 100 to 1000 nM; on JAK3, no less than 10000 nM; at BTK, 100 to 1000 nM. For the same compound, the TXK/ITK at TXK was 7.6.
Consider `C=CC(=O)N1[C@@H]2CC[C@H]1CN(C(=O)c1cc(Sc3cnc(NC(=O)C4CC4)s3)c(C)cc1OC)C2` [Compound 18], for which the concentration for half-maximal inhibition (IC50) against ITK was less than 10 nM; against TXK, less than 10 nM; against JAK3, 10 to 100 nM; at BTK, 10 to 100 nM. At TXK, the TXK/ITK amounted to 2.8993.
As for `C=CC(=O)N1CCN(C(=O)c2cc(Sc3cnc(NC(=O)c4ccsc4)s3)c(C)cc2OC)[C@@H](C)C1` [Compound 144, (S)-N-(5-((5-(4-acryloyl-2-methylpiperazine-1-carbonyl)-4-methoxy-2-methylphenyl)thio)thiazol-2-yl)thiophene-3-carboxamide], the IC50 was less than 10 nM at ITK, 10 to 100 nM against TXK, 100 to 1000 nM against JAK3 and 10 to 100 nM against BTK. Further, the TXK/ITK at TXK is given as 18.84.
Consider `C=CC(=O)N1CCN(C(=O)c2cc(Sc3cnc(NC(=O)c4ccncc4)s3)c(C)cc2OC)CC1` [Compound 87], for which the IC50 at ITK was less than 10 nM; at TXK, 100 to 1000 nM; against JAK3 it was 1000 to 10000 nM; against BTK, 100 to 1000 nM. For the same compound, the TXK/ITK on TXK was 74.161.
As for `C=CC(=O)N1CCCN(C(=O)c2cc(Sc3cnc(NC(=O)C4CC4)s3)c(C)cc2C)C[C@H]1CC` [Compound 112], the half-maximal inhibitory concentration (IC50) is less than 10 nM against ITK, 100 to 1000 nM against TXK, 1000 to 10000 nM against JAK3 and 100 to 1000 nM on BTK. In addition, the TXK/ITK on TXK was determined as 118.0.
In the case of `C=C(C)C(=O)N1CCCN(C(=O)c2cc(Sc3cnc(NC(=O)c4cccc(CN(C)C)c4)s3)c(C)cc2OC)CC1` [Compound 39], the IC50 was 100 to 1000 nM on ITK, 1000 to 10000 nM at TXK, no less than 10000 nM against JAK3 and no less than 10000 nM against BTK. On TXK, the TXK/ITK came out at 1.5.
For the compound `C=CC(=O)N1CCCN(C(=O)c2cc(Sc3cnc(NC(=O)C4CC4)s3)c(C)cc2Cl)C[C@H]1C` [Compound 61], the half-inhibitory concentration (IC50) at ITK was 10 to 100 nM; on TXK, 100 to 1000 nM; at JAK3 it was 1000 to 10000 nM; at BTK, no less than 10000 nM. Also, the TXK/ITK at TXK is 50.716.
Regarding `C=C(CN(C)C)C(=O)N1CCCN(C(=O)c2cc(Sc3cnc(NC(=O)C4CC4)s3)c(C)cc2OC)C[C@H]1C` [Compound 88], the half-inhibitory concentration (IC50) is 100 to 1000 nM on ITK, no less than 10000 nM on TXK, no less than 10000 nM against JAK3 and no less than 10000 nM against BTK. The TXK/ITK on TXK came out at 30.436.
`C=CC(=O)N1CCCN(C(=O)c2cc(Sc3cnc(NC(=O)c4cccc(CN(C)C)c4)s3)c(C)cc2OC)C[C@H]1C` [Compound 48]: the half-maximal inhibitory concentration (IC50) is 10 to 100 nM against ITK, no less than 10000 nM on TXK, no less than 10000 nM against JAK3 and 1000 to 10000 nM against BTK. Also, the TXK/ITK on TXK was 519.55.
Consider `C=CC(=O)N1CCC2(C1)CN(C(=O)c1cc(Sc3cnc(Nc4ccccn4)s3)c(C)cc1OC)C2` [Compound 152, 1-(2-(2-methoxy-4-methyl-5-((2-(pyridin-2-ylamino)thiazol-5-yl)thio)benzoyl)-2,6-diazaspiro[3.4]octan-6-yl)prop-2-en-1-one], for which the IC50 was less than 10 nM on ITK, less than 10 nM against TXK, 100 to 1000 nM against JAK3 and 10 to 100 nM at BTK. Besides, the TXK/ITK at TXK is listed as 2.06.
For `C=CC(=O)N1CC[C@H](N(C)C(=O)c2cc(Sc3cnc(NC(C)=O)s3)c(C)cc2OC)C1` [Compound 30], the IC50 against ITK fell in the range of 10 to 100 nM; on TXK it was 10 to 100 nM; against JAK3, 1000 to 10000 nM; at BTK it was 100 to 1000 nM. The TXK/ITK at TXK is given as 3.101.
On to `C=CC(=O)N1CCCN(C(=O)c2cc(Sc3cnc(NC(=O)C4CC4)s3)c(C)cc2C)CC1` [Compound 74], for which the 50% inhibitory concentration (IC50) is less than 10 nM against ITK, 100 to 1000 nM against TXK, 100 to 1000 nM on JAK3 and 100 to 1000 nM against BTK. Besides, the TXK/ITK at TXK was 16.033.
For `C=CC(=O)N1CCCN(C(=O)c2cc(Sc3cnc(Nc4ccccn4)s3)c(C)cc2OC)C[C@H]1C` [Compound 103], the half-inhibitory concentration (IC50) is less than 10 nM on ITK, 10 to 100 nM on TXK, 100 to 1000 nM at JAK3 and 100 to 1000 nM on BTK. Further, the TXK/ITK on TXK came out at 47.6.
For `C=CC(=O)N1CCN(C(=O)c2cc(Sc3cnc(NC(=O)C4CC4)s3)c(C)cc2C(F)(F)F)CC1` [Compound 68], the half-maximal inhibitory concentration (IC50) at ITK is 10 to 100 nM; on TXK, 100 to 1000 nM; against JAK3 it was 1000 to 10000 nM; against BTK, no less than 10000 nM. Also, the TXK/ITK on TXK is recorded as 3.6548.
For `C=CC(=O)N1CCN(C(=O)c2cc(Sc3cnc(NC(=O)c4cccc(CN(C)C)c4)s3)c(C)cc2OC)C[C@H]1C#N` [Compound 124], the 50% inhibitory concentration (IC50) on ITK, at TXK, against JAK3 and at BTK was less than 10 nM each time.
`C=CC(=O)N1CCCN(C(=O)c2cc(CSc3cnc(NC(=O)C4CC4)s3)cc(C)c2C)CC1` [Compound 58]: the IC50 against ITK was 1000 to 10000 nM; on TXK, 1000 to 10000 nM; on JAK3, 1000 to 10000 nM; on BTK it was no less than 10000 nM. The TXK/ITK on TXK was 2.9749.
Take `C=CC(=O)N1CCN(C(=O)c2cc(Sc3cnc(NC(=O)c4cccc(CN(C)C)c4)s3)c(C)cc2OC)C[C@H]1C` [Compound 32]: the IC50 on ITK was less than 10 nM; against TXK, 100 to 1000 nM; against JAK3 it was 1000 to 10000 nM; on BTK it was 100 to 1000 nM. The TXK/ITK on TXK is 81.114.
For the compound `C=CC(=O)N1CCCN(C(=O)c2cc(Sc3cnc(NC(=O)c4ccsc4)s3)c(C)cc2OC)C[C@H]1CC` [Compound 120], the 50% inhibitory concentration (IC50) on ITK is less than 10 nM; against TXK, 100 to 1000 nM; against JAK3, 1000 to 10000 nM; against BTK it was 100 to 1000 nM. Also, at TXK, the TXK/ITK is 66.4.
Turning to `C=CC(=O)N1CCN(C(=O)c2cc(C(C)c3cnc(NC(=O)C4CC4)s3)c(C)cc2OC)CC1` (centres unmarked) [Compound 140], the concentration for half-maximal inhibition (IC50) against ITK is less than 10 nM; at TXK it was 10 to 100 nM; on JAK3, 1000 to 10000 nM; against BTK, 10 to 100 nM. Besides, on TXK, the TXK/ITK is listed as 2.66.
As for `C=CC(=O)N1CCCN(C(=O)c2cc(Sc3cnc(NC(=O)C4CC4)s3)c(Cl)cc2C)C[C@H]1C` [Compound 62], the IC50 is less than 10 nM against ITK, 1000 to 10000 nM against TXK, 1000 to 10000 nM against JAK3 and 1000 to 10000 nM against BTK. Besides, the TXK/ITK at TXK was 320.16.
As for `C=CC(=O)N1CCCN(C(=O)c2cc(Sc3cnc(NC(=O)C4CC4)s3)c(C)cc2C(F)(F)F)C[C@H]1C` [Compound 70], the IC50 against ITK is 10 to 100 nM; at TXK, 1000 to 10000 nM; on JAK3, no less than 10000 nM; on BTK it was no less than 10000 nM. Besides, at TXK, the TXK/ITK was determined as 35.68.
Consider `C=CC(=O)N1CCN(C(=O)c2cc(Sc3cnc(NC(=O)C4CC4)s3)c(Cl)cc2C)CC1` [Compound 80], for which the concentration for half-maximal inhibition (IC50) at ITK was less than 10 nM; on TXK, 10 to 100 nM; against JAK3 it was 10 to 100 nM; against BTK, 100 to 1000 nM. Besides, on TXK, the TXK/ITK amounted to 8.1619.

These data come from patent publication US11008314B2, “Compounds and methods for modulating interleukin-2-inducible t-cell kinase” (CORVUS PHARMACEUTICALS, INC., priority 2016, dated 2021).
